ChEMBL document CHEMBL1201862, “PubChem BioAssay data set” (2004)
The source made the active and inactive calls.

Assays:
[1] = target: T1, Calpain-2 catalytic subunit (Sus scrofa, UniProt P43367); test: pig calpain II inhibitor potency, dose response, biochemical, fluorogenic peptide substrate (AID 1420); type: functional
T1 sequence (P43367 whole entry): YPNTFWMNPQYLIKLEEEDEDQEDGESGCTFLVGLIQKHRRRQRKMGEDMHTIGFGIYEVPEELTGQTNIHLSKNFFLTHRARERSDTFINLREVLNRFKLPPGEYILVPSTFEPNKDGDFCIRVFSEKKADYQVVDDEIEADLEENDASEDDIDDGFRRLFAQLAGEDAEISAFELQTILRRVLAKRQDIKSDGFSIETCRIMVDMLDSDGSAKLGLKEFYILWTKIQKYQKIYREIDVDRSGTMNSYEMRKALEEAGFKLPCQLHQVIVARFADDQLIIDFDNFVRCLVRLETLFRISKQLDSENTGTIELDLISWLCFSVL

[2] = target: T2, Rac GTPase-activating protein 1 (Homo sapiens, UniProt Q9H0H5); test: MgcRacGAP GTPase-activating activity inhibitors, confirmation, biochemical, ADP Hunter fluorescence, primary and confirmatory (AID 624330); type: functional
T2 sequence (Q9H0H5 whole entry): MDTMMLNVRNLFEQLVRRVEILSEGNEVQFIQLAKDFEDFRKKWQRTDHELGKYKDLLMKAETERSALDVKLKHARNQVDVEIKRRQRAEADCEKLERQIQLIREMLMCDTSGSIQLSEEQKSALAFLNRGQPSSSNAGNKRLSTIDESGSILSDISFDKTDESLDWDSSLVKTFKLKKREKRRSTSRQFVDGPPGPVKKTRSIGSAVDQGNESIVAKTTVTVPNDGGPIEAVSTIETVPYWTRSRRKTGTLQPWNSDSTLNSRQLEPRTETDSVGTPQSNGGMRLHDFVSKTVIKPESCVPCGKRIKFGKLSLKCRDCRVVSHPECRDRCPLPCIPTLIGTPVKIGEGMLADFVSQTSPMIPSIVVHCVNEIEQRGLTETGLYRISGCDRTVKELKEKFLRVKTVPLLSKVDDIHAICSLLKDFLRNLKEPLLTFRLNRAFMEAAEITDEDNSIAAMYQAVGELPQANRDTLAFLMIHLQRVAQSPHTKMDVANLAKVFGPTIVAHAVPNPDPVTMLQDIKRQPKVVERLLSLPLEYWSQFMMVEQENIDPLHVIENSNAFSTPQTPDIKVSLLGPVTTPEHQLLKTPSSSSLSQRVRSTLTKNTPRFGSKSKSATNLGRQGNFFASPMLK

Large T antigen = Large T antigen (Simian virus 40, UniProt P03070); type: functional, Betapolyomavirus macacae;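 also: Confirmatory-stage PubChem screen for compounds that inhibit SV40 T antigen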
BJ [3] = test: cytotoxicity toward BJ-TERT-LT-ST fibroblasts, dose response, cell-based, RAS-independent, luminescence (AID 1935); type: functional; conditions: Homo sapiens;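 also: BJ fibroblasts immortalized with TERT plus LT and ST oncogenes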
BJ [4] = test: cells; type: functional, cell-based; conditions: Homo sapiens
[5] = cytotoxicity toward DRD oncogenic fibroblasts, dose response, cell-based, non-viral oncogenic, luminescence (AID 1934); type: functional; conditions: Homo sapiens
BJ [6] = test: cytotoxicity toward BJ-TERT fibroblasts, dose response, cell-based, RAS-independent, luminescence (AID 1933); type: functional; conditions: Homo sapiens
Protein RecA = target: T3, Protein RecA (Mycobacterium tuberculosis, UniProt P9WHJ3); test: Fluorescence Cell-Free Homogeneous Dose Retest to Identify Inhibitors of RecA-Intein Splicing Activity. [Related pubchem assays (depositor defined):AID2097, AID2223, AID489010, AID492950]; type: functional
T3 sequence (P9WHJ3 whole entry): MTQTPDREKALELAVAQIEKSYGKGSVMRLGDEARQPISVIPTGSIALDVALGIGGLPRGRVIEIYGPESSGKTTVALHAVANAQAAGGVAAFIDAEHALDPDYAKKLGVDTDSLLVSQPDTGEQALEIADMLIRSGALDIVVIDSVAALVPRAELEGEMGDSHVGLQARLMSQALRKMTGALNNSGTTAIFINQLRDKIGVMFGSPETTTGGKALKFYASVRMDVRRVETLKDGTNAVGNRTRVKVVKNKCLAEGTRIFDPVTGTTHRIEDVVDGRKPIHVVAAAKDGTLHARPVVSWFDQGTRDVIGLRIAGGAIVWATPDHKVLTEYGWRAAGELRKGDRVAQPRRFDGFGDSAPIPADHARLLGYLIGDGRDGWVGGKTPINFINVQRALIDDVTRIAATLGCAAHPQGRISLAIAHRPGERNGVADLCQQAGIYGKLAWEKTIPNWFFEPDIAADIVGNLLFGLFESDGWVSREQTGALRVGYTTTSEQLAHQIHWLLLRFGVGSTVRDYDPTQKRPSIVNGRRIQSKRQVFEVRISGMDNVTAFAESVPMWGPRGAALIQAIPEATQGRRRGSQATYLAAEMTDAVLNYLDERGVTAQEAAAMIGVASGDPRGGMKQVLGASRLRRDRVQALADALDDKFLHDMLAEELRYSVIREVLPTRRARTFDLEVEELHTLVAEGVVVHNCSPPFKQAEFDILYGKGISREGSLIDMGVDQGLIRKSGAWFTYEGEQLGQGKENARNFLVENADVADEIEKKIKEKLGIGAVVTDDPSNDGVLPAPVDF

[7] = target: T4, Replicative DNA helicase DnaB (Mycobacterium tuberculosis, UniProt P9WMR3); test: DnaB intein splicing inhibitors, dose response, biochemical, cell-free fluorescence (AID 449749); type: functional
T4 sequence (P9WMR3 whole entry): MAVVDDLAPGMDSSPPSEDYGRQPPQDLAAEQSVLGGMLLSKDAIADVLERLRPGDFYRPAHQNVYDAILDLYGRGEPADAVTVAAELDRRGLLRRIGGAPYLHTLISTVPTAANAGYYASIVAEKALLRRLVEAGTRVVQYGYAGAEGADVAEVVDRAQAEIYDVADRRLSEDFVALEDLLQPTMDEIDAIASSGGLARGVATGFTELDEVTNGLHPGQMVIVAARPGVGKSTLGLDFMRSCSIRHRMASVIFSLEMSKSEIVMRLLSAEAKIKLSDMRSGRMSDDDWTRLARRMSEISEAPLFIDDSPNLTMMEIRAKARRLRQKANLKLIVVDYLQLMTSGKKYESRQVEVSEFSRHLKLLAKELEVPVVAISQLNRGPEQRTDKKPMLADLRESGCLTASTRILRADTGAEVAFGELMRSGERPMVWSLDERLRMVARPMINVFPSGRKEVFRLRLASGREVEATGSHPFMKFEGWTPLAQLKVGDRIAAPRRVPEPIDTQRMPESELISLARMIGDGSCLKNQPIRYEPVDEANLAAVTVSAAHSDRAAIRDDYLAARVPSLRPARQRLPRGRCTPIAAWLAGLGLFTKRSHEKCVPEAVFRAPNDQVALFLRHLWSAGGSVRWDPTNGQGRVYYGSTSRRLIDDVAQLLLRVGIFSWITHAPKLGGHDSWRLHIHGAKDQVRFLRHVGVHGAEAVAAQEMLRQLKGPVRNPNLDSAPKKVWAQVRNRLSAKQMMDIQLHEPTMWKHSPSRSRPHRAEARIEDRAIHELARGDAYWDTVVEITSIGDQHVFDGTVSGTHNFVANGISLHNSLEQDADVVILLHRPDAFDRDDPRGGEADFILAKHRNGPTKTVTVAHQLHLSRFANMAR

[8] = target: T5, Heat shock factor protein 1 (Mus musculus, UniProt P38532); test: HSF1 potentiators in luciferase reporter cells, confirmation, cell-based, NIH3T3, luminescence, dose retest (AID 435004); type: functional;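 also: stress induced by proteasome inhibitor MG132 added 30 min after compound; luciferase reporter driven by HSF1 response element in NIH3T3 cells; actives raise luminescence as potentiators of the MG132 stress response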
T5 sequence (P38532 whole entry): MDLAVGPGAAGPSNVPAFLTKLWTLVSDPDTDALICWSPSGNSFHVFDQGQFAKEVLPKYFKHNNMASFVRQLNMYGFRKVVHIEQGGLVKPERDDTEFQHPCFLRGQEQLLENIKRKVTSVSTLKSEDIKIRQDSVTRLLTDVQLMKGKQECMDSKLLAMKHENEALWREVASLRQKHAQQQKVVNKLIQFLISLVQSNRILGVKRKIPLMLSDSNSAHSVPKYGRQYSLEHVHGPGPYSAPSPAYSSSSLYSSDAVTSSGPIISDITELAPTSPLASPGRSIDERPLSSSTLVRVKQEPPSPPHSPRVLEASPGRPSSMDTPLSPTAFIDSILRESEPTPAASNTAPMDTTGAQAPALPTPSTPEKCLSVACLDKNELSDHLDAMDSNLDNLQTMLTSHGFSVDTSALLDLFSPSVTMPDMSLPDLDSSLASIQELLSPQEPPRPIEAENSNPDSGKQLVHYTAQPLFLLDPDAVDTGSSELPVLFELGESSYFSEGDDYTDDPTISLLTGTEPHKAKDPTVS

[9] = target: T6, Zinc finger protein mex-5 (Caenorhabditis elegans, UniProt Q9XUB2); test: MEX-5/TCR-2 RNA interaction inhibitors, dose response, biochemical, C. elegans, fluorescence polarization (AID 1960)
T6 sequence (Q9XUB2 whole entry): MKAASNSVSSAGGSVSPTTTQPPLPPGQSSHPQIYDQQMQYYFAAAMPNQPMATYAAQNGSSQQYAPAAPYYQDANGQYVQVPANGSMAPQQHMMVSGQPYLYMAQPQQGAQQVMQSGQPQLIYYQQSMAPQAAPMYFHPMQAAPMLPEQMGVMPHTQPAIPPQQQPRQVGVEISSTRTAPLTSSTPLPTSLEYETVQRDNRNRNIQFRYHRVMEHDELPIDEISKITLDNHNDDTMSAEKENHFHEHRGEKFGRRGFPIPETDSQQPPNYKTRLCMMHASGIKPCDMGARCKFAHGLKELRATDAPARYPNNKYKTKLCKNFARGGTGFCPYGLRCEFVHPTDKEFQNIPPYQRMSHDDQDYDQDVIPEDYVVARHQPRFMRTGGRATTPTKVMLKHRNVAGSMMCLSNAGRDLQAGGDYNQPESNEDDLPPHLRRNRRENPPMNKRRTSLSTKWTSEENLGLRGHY

[10] = target: T7, RNA-binding protein pos-1 (Caenorhabditis elegans, UniProt G5EF15); test: inhibitors of POS-1/mex-3 RNA binding, dose response, biochemical, fluorescence polarization (AID 1964);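 also: purified POS-1 fused to maltose binding protein made in E. coli; potency of compounds blocking POS-1 binding to fluorescent RNA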
T7 sequence (G5EF15 whole entry): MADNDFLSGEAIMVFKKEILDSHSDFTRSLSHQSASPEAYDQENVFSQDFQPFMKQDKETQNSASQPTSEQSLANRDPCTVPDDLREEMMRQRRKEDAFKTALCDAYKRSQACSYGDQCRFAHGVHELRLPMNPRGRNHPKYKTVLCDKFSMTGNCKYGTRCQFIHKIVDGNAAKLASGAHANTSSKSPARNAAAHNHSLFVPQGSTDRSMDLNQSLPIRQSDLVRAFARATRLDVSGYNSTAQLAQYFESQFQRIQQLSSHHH

INS1 = test: beta cell apoptosis inhibitors, cytokine rescue, dose response, luminescence, retest (AID 449756); type: functional, cell-based; conditions: Rattus norvegicus;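 also: cell death triggered by IL-1 beta plus TNF-alpha plus IFN-gamma mixture; protective hits raise ATP signal compared with cytokine alone wells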

Chain of Large T antigen (P03070 whole entry): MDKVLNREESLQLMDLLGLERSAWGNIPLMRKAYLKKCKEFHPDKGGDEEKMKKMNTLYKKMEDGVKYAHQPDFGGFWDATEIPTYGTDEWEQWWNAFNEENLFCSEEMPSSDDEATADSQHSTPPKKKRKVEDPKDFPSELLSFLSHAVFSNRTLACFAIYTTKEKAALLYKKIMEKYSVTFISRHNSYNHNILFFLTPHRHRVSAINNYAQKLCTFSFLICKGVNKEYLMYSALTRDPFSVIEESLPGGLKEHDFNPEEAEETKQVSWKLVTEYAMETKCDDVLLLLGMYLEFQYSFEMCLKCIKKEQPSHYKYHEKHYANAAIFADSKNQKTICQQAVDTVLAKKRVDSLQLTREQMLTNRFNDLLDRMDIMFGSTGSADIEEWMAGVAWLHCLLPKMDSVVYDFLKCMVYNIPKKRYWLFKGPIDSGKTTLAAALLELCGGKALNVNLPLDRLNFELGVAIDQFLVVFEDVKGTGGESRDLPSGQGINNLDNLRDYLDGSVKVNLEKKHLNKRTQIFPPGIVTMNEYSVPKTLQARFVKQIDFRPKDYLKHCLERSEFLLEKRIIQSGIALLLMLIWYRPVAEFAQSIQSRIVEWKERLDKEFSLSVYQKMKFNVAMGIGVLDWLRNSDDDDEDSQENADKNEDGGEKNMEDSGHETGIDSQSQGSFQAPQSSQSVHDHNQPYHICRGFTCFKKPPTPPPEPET

C=CCNc1ccc(N2C(=O)C3CCC(C)CC3C2=O)cc1[N+](=O)[O-] (stereo not given)
IC50 [1]: 4.48 µM (not active)

N#CC(c1ccncc1)(c1ncc(C(F)(F)F)cc1Cl)N1CCOCC1 (stereo not given)
IC50 [1]: 19.2 µM (not active)

COC(C(=O)N/N=C(\C)CC(=O)Nc1ccc(N(C)C)cc1)c1ccccc1 (stereo not given)
IC50 [2]: 50.3 µM (active) | IC50 (Large T antigen): 11.1 µM (active)

COC(=O)c1ccc(NC2(C#N)C(=O)Nc3ccccc32)cc1 (stereo not given)
IC50 [1]: > 50 µM (not active)

Cn1nnnc1SC(C(=O)Nc1cccc(C(F)(F)F)c1)c1ccccc1 (stereo not given)
IC50 [1]: 16.4 µM (active)

NS(=O)(=O)c1cccc(NC(=O)CN2CCC(Cc3ccccc3)CC2)c1
IC50 [1]: 25.9 µM (not active)

ClC(Cl)(Cl)c1nc2ccccc2n2nncc12
EC50 (BJ [3]): 18.7 µM (active) | EC50 (BJ [4]): 13.7 µM (active) | EC50 [5]: 13.1 µM (active) | EC50 (BJ [6]): 6.96 µM (inconclusive) | EC50 (Protein RecA): 6.03 µM (active) | AC50 [7]: 39.3 µM (active) | EC50 [8]: 5.46 µM (active)

COc1cc(/C=C2/N=C(c3ccccc3)OC2=O)c(F)cc1OCc1ccccc1
EC50 [9]: > 300 µM (inconclusive) | EC50 [10]: > 300 µM (not active)

CCCCCCCCCCOC(=O)C[N+](C)(C)C/C=C(/C)Cl
AC50 (INS1): 13.3 µM (active)

OC(COc1ccccc1)Cn1c2ccccc2c2ccccc21 (stereo not given)
IC50 [1]: 7.48 µM (not active)

COc1cc(/C=N/NC(=O)CCc2ccccc2)ccc1O
IC50 [2]: 28.7 µM (active)

Oc1ccc(-c2csc(Nc3ccccn3)n2)cc1
IC50 [2]: 65.8 µM (active)

COc1ccc(/C=C/c2cc(C(F)(F)F)nc(O)n2)cc1OC
EC50 [9]: > 300 µM (not active) | EC50 [10]: > 300 µM (not active)

Cc1[nH]c2ccccc2c1CCN(Cc1cccnc1)C(S)=Nc1ccc(F)cc1
IC50 [1]: > 50 µM (not active)

CC1CCN([S+]([O-])C23CC4CC(CC(C4)C2)C3)CC1 (stereo not given)
IC50 [1]: > 50 µM (not active)

COc1ccc(NC(=O)CN2CCN(c3nc(-c4ccc(F)cc4)cs3)CC2)c(OC)c1
IC50 [1]: 5.73 µM (not active)

CCOc1ccc(Br)cc1S(=O)(=O)NC(=O)c1ccccc1
EC50 [9]: > 300 µM (not active) | EC50 [10]: > 300 µM (not active)

Cc1ccc(C(=O)c2cc([N+](=O)[O-])ccc2N2CCN(C)CC2)cc1
EC50 (BJ [3]): 13.5 µM (inconclusive) | EC50 (BJ [4]): 21.1 µM (inconclusive) | EC50 [5]: 15.8 µM (inconclusive) | EC50 (BJ [6]): 12.5 µM (active)

COc1cc(CN(C)CCc2ccccn2)cc(OC)c1OC
IC50 [2]: 101 µM (active)

Oc1nc(SCc2ccccc2Cl)nc(-c2ccc(Cl)cc2)n1
IC50 [1]: 4.51 µM (not active)

O=C(CNC1CCCCCC1)Nc1ccccc1N1CCOCC1
IC50 [2]: 177 µM (active)

Cc1cccc(-c2noc(CN(C(=O)/C=C/c3ccccc3Cl)C(C)C)n2)c1
IC50 [1]: 13.3 µM (not active)
